Legend:
Rip1-Tag2 tumors = test: Rip1-Tag2 transgenic mouse model; type: in vivo, mice
Experimental: The Rip1-Tag2/transgenic mouse models were used as reported previously ([29]). Briefly, treatment of mice started at the age of 12 weeks. Mice were treated daily for 16 days, and volume of each tumor was measured and calculated as described for the 4T1 mammary carcinoma mouse model below. The tumor burden was calculated as the sum of individual tumor volumes for each mouse. For the survival study, daily treatment started at the age of 12 weeks, and mice were monitored daily to detect moribund mice for euthanasia. CD31-positive vessel density within the tumors were quantified by density index (1 vessel/mm^2) measured using the Definiens software. Individual density indices were plotted as the mean ± SD for each group. Statistical significance was assessed by Kruskall–Wallis followed by Dunnet multiple comparison test.

VEGFR-3 [1] = molecular target: VEGFR-3 (Homo sapiens, UniProt P35916); test: Biochemical kinase assay (in vitro assay), VEGFR-3; set-up: expressed in transfected cells; host or cells: HEK293T; conditions: read-out: IC50 in biochemical assays, VEGFR-3
Experimental: Sigma protein kinase assay kits were used. 125 μL per well of Poly-Glu-Tyr (PGT) solution (250 μg/mL of PGT in PBS without Ca^2+, Mg^2+ and sodium bicarbonate) was added in a 96-well plate and overnight incubation was performed at 37 °C. The day after, coating solution was removed and wells were washed with 300 μL of PBS-Tween-20 0.05 %. The washing buffer was removed and wells were dried for 2 h at 37 °C. 90 μL of the kinase buffer was supplemented with ATP (30 μM for VEGFR-1 and VEGFR-3, and 15 μM for VEGFR-2), and the compound (EVT801 or SAR401849 at the indicated concentration or 1 % DMSO for the vehicle control). The phosphorylation reaction was initiated by the addition of 20 μL of kinase buffer without ATP supplemented with 100 ng of the tyrosine kinase (or without tyrosine kinase as control). Plates were incubated with gentle agitation at room temperature for 30 min. After 3 washes with 300 μL of washing buffer, 100 μL of phosphotyrosine specific monoclonal antibody conjugated to HRP (1:30,000) was added onto the phosphorylated PGT. Plates were incubated for 30 min at room temperature under gentle agitation. Then, 3 washes with 300 μL of washing buffer were performed. […] After 7 min at room temperature, the reaction was stopped by addition of 100 μL of […], and absorbance was determined with an Endvision spectrophotometer at 492 nm.

VEGFR-3 [2] = molecular target: T1, VEGFR-3 (Mus musculus, UniProt P35917); test: Cellular VEGFR-3 autophosphorylation assay, mouse receptor; type: cell-based; conditions: read-out: IC50 in cellular assays, VEGFR-3 autophosphorylation, mouse receptor
T1 construct: expressed in transfected cells; host or cells: HEK293T (inferred from the general description of the cellular assay)
Experimental: Transfection of HEK293T cells and Ba/F3 cells with VEGFR-1-Flag, VEGFR-2-Flag or VEGFR-3-Flag expression constructs was performed using Fugene-6 (Roche) as per manufacturer’s protocol. Briefly, Fugene-6 was pre-incubated with Opti-Mem (Gibco) before adding DNA. After 24 h, media was replaced with serum-free culture media containing 0.2 % BSA. On the next day, cells were incubated for 1 h in 1 mM orthovanadate, harvested, dissociated and distributed at 4 x 10^5 cells in 5 mL for HEK-VEGFR-1 and HEK-VEGFR-3, and 5 x 10^4 cells per 5 mL for HEK VEGFR-2 in the presence of EVT801 or SAR401849. After 30 min, the reaction was stopped by the addition of cold PBS supplemented with 1 mM orthovanadate. Cells were then lysed with 150 μl of RIPA buffer for 15 min at 4°C, then centrifuged for 10 min at 10,000 g. Supernatants (75 μl) were distributed in duplicate on 96 well plates that were precoated with the anti-flag, and left for 1 h at room temperature. After 3 washes, the anti-phosphotyrosine conjugated to the HRP was added and incubated for 1 h at room temperature. Wells were then washed 3 times with TBS buffer containing 0.5 % Tween-20 and 2 mM MgCl2. The reaction was stopped with 50 μL of 2 N H2SO4, and the signal was read with Envision at the wavelengths of 485 nm and 530 nm.

RT-HAM-001 tumors = test: RT-001-HAM subcutaneous patient-derived xenograft tumor mouse model; type: in vivo, mice; conditions: 30 mg/kg twice per day, 7-day treatment
Experimental: Patient-derived tumors of the same passage were transplanted subcutaneously outbred athymic (nu/nu) female HSD mice. When tumor volume reached 726 to 1,437 mm^3, 4 donor mice were sacrificed by cervical dislocation, and tumors were aseptically excised and dissected. After removing necrotic areas, tumor fragments of approximately 20 mm^3 were transferred to culture medium before grafting. A total of 108 mice were anesthetized with 100 mg/kg ketamine hydrochloride (Virbac) and 10 mg/kg xylazine (Bayer). Then, a tumor fragment was placed in the subcutaneous tissue of an incision at the level of the interscapular region as described previously ([30]). All mice from the same experiment were implanted on the same day. A total of 54 mice with RT-001-HAM established growing tumor (P6.0.0/0) between 62.5 and 196 mm^3 were allocated according to tumor volume, ensuring homogenous median and mean tumor volume in each treatment arm. Treatments with 5 mL/kg vehicle, 30 mg/kg EVT801, or 30 mg/kg pazopanib started 15 days after tumor implantation and continued twice per day until termination 7 days later. Tumor volumes were measured via a caliper three times a week during the treatment period. All animals were weighed at the same time as tumor size measurement. Plasma and fresh tumor samples were collected at different timepoints after final dose at day 7 from all mice.

VEGFR-3 (Homo sapiens, UniProt P35916), sequence (P35916 25-1363): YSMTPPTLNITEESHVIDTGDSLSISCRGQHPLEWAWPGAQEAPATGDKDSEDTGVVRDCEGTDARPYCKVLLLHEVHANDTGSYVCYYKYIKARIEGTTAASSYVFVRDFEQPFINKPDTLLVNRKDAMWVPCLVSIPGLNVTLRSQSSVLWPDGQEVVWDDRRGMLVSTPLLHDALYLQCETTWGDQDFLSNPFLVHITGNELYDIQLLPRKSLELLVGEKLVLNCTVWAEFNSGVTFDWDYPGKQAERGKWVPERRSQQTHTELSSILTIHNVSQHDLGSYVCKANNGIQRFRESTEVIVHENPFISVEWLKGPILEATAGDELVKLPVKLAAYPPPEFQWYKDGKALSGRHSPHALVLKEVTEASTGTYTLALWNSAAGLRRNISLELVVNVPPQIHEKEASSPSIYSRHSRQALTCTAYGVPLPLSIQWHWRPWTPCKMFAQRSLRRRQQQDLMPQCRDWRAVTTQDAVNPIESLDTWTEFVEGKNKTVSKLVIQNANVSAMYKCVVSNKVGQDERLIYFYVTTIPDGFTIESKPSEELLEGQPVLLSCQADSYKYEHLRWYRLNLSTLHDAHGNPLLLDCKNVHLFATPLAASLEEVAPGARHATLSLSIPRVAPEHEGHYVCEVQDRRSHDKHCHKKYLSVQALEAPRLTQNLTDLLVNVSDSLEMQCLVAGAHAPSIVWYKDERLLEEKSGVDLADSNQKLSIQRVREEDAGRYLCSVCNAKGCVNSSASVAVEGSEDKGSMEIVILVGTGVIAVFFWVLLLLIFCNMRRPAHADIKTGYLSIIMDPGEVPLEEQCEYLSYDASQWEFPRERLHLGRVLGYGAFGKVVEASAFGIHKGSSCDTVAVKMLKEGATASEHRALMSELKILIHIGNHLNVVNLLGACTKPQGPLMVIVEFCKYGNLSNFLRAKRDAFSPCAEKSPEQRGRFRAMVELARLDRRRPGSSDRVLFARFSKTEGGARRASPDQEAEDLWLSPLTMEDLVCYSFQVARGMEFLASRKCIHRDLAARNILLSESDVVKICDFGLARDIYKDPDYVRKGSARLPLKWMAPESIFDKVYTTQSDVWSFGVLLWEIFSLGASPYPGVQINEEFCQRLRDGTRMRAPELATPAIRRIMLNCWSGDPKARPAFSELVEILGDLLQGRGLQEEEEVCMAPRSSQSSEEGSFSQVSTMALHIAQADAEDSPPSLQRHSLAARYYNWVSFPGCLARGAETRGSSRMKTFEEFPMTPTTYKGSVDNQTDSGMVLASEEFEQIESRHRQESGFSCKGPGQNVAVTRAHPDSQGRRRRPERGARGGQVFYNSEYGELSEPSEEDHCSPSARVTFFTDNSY
T1 sequence (P35917 25-1363): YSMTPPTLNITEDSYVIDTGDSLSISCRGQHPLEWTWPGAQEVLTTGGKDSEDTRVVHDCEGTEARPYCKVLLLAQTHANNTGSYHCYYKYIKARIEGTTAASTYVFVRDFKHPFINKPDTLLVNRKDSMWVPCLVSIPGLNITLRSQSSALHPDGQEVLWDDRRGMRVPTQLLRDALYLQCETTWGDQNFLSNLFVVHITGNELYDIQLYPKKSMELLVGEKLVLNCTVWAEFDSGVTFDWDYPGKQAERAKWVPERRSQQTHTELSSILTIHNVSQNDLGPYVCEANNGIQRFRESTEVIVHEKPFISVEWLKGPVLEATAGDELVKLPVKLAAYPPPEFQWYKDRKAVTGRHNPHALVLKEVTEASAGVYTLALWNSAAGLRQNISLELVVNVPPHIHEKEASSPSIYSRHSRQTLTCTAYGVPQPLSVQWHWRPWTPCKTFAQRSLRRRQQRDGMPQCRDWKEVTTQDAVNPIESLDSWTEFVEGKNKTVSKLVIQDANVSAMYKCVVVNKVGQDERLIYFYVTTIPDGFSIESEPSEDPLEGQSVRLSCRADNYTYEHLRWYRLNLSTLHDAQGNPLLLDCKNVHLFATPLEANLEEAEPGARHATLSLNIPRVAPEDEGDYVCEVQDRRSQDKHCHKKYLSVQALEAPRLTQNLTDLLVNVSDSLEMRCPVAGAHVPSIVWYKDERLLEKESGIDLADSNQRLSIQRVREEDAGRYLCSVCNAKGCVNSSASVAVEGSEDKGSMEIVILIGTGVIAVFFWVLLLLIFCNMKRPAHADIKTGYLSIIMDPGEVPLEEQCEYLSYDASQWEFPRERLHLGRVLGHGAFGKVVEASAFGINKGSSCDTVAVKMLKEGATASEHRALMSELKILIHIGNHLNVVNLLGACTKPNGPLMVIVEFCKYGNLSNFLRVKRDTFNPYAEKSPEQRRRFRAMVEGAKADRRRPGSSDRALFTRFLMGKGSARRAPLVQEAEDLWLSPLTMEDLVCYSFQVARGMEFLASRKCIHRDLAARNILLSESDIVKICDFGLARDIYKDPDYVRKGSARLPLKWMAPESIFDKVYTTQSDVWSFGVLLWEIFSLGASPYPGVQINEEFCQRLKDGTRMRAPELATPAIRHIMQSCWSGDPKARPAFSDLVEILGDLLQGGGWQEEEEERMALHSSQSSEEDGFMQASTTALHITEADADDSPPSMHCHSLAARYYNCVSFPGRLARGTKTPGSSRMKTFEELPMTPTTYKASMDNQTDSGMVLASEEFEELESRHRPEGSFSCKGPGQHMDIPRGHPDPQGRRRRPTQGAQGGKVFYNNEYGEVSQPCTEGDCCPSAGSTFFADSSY

CCn1c(N)c(-c2ncc[nH]2)c(=O)c2ccc(C#C[C@@](C)(O)COC)nc21 [EVT801]
T/C ratio, tumor volume (Rip1-Tag2 tumors; 30 mg/kg/day, 2 weeks): 63%
average number of tumors per pancreas (Rip1-Tag2 tumors; 30 mg/kg/day, 2 weeks): three
reduction in tumor volume (Rip1-Tag2 tumors; 30 mg/kg/day, 2 weeks): 37%
reduction of number of pancreatic tumors (Rip1-Tag2 tumors; 30 mg/kg/day, 2 weeks): 67%
T/C ratio, tumor volume (Rip1-Tag2 tumors; 100 mg/kg/day, 2 weeks): 16%
reduction of number of pancreatic tumors (Rip1-Tag2 tumors; 100 mg/kg/day, 2 weeks): 91%
overall survival of the mice (Rip1-Tag2 tumors; 30 and 100 mg/kg/day): dose-dependently increased
IC50 (VEGFR-3 [1]): 11 nM
IC50 (VEGFR-3 [2]): 151 nM
T/C ratio, tumor volume (RT-HAM-001 tumors): 41%
size of necrotic areas in tumors (RT-HAM-001 tumors): decreased
hypoxic areas (CAIX) in tumors (RT-HAM-001 tumors; not statistically significant): appeared to decrease hypoxia in half of the tumors

— article PMC10035370, “Targeting Tumor Angiogenesis with the Selective VEGFR-3 Inhibitor EVT801 in Combination with Cancer Immunotherapy” (Cancer Research Communications, 2022)
